For one compound, IC50 results are on record in paper PMC8308786, “Discovery and Characterization of a Novel MASTL Inhibitor MKI-2 Targeting MASTL-PP2A in Breast Cancer Cells and Oocytes” (Pharmaceuticals, 2021).

pIC50: −log10 of the molar value.

The test concerns the target T1, MASTL (Homo sapiens, UniProt Q96GX5).
T1 construct: recombinant GST-tagged-MASTL
T1 sequence (Q96GX5 1-879): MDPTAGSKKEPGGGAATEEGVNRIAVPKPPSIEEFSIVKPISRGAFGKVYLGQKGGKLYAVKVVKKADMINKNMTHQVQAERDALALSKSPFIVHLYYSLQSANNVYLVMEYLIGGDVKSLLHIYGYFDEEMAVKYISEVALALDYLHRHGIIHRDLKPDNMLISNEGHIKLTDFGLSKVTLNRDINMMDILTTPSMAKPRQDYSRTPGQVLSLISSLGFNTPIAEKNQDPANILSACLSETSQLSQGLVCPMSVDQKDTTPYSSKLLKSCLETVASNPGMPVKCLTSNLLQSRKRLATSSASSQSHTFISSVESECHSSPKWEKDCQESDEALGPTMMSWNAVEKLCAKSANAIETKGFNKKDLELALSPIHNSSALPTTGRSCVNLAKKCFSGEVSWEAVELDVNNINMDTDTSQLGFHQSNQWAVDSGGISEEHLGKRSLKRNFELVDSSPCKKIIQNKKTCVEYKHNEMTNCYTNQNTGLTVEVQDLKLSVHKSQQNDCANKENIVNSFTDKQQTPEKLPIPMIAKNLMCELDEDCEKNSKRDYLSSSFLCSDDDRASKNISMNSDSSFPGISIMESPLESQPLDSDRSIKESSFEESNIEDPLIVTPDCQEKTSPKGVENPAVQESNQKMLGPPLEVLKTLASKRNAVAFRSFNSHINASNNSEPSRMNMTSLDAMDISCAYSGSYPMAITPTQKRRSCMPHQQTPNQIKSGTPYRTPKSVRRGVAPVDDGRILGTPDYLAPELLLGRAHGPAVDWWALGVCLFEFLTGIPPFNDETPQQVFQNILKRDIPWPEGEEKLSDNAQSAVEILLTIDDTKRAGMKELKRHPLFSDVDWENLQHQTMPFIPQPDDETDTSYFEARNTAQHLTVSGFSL
The test can be described thus: in vitro kinase assay with recombinant GST-MASTL and His-ENSA substrate; also HTRF KinEASE and ADP-Glo. The class given is biochemical. In general terms: Time-resolved FRET reads energy transfer from a long-lived donor to a nearby acceptor.

Usually pIC50 stands for the negative decadic logarithm of the IC50, by convention in mol/L. As to `N#CCc1ccc(Nc2nc(Nc3cc(C4CC4)[nH]n3)c3ccccc3n2)cc1` [#248, 2-(4-((4-((5-cyclopropyl-1H-pyrazol-3-yl)amino)quinazolin-2-yl)amino)phenyl)acetonitrile], the pIC50 was 7.43.
